Results published in patent publication US20260224563A1, “CRYSTALLINE FORMS OF 6-(3-((5-CHLORO-2-METHOXYPYRIDINE)-3-SULFONAMIDO)-2,6-DIFLUOROPHENYL)-N-METHYLIMIDAZO[1,5-A]PYRAZINE-1-CARBOXAMIDE AND METHODS FOR USING THE SAME” (HIBERCELL, INC., priority 2023, published 2026).
Where a name gives a salt, the structure may show the parent alone.

Tests used:
[1] = Water activity study of the crystalline potassium salt forms (acetone/water suspension, XRPD); format: physicochemical; details: KF wt. %>0.19, 25-50° C., KF wt. %~0.1, 25° C. in acetone/water
Experimental: A water activity study of the potassium salt forms was conducted in two groups: (i) Form I and Form III of the potassium salt, and (ii) Form II and Form III of the potassium salt.
Each suspension was shaken at 700 rpm in a shaker at 25° C., 35° C., 45° C., and 50° C., and the sample was analyzed by XRPD.

[2] = Solid-state stability (60° C./closed and 40° C./75% relative humidity open, up to seven days; HPLC purity, XRPD); format: physicochemical
Experimental: HPLC method for stability and solubility testing is listed below.
• Column: Ascentis® Express C18 4.6*150 mm*2.7 μm • Mobile Phase A: 0.05% trifluoroacetic acid in water • Mobile Phase B: Methanol • Gradient (T/B %): 0/10, 10/100, 13.5/10, 15/10 • Column Temperature: 40° C. • Detector: DAD; 220 nm • Flow rate: 1.0 mL/min • Injection volume: 1 μL • Concentration: 1 mg/mL • Run time: 15 minutes • Diluent: Methanol:Water 9:1 (v/v)
The solid-state stability of Form III of the potassium salt was performed using the following protocol: • (1) A sample of Form III of the potassium salt was placed at 60° C./closed and 40° C./75% relative humidity (open) conditions for up to seven days. At the onset of the test (day 0) and day 7 of the test, the sample was dissolved in a diluent to prepare a 1 mg/mL solution for HPLC purity analysis. The solid sample was analyzed by XRPD to assess the crystal form of each solid at day 7. […] The XRPD data confirmed the physicochemical stability of Form III of the potassium salt under both closed and open conditions. […]

CNC(=O)c1ncn2cc(-c3c(F)ccc(NS(=O)(=O)c4cc(Cl)cnc4OC)c3F)ncc12 [Potassium salt Form III, 6-(3-((5-chloro-2-methoxypyridine)-3-sulfonamido)-2,6-difluorophenyl)-N-methylimidazo[1,5-a]pyrazine-1-carboxamide]
Relative stability of crystalline forms ([1]; versus Form I of the potassium salt): more stable
Relative stability of crystalline forms ([1]; versus Form II of the potassium salt): more stable
Purity (Area %) 220 nm ([2]; 0 day): 99.90 Area %
XRPD After 7 Days ([2]; 40° C./75% RH (open)): Unchanged
Purity (Area %) 220 nm ([2]; 40° C./75% RH (open), 7 days): 99.90 Area %
Purity (Area %) 220 nm ([2]; 60° C./closed, 7 days): 99.90 Area %
XRPD After 7 Days ([2]; 60° C./closed, 7 days): Unchanged
physical and chemical stability ([2]; both closed (60° C.) and open (40° C./75% RH) conditions for seven days): maintained physical and chemical stability
